From ChEMBL document CHEMBL1208782, “Synthesis and pharmacological validation of a novel series of non-steroidal FXR agonists” (Bioorg Med Chem Lett, 2010)
pEC50: −log10 of the molar value.

How the values were obtained:
Format in all cases: functional, cell-based
[1] = biological target: T1, Oxysterols receptor LXR-beta (Homo sapiens, UniProt P55055); assay: Agonist activity at LXRbeta-LBD expressed in HEK293 cells assessed as Gal4-DBD interaction by cellular mammalian one hybrid assay
T1 sequence (P55055 whole entry): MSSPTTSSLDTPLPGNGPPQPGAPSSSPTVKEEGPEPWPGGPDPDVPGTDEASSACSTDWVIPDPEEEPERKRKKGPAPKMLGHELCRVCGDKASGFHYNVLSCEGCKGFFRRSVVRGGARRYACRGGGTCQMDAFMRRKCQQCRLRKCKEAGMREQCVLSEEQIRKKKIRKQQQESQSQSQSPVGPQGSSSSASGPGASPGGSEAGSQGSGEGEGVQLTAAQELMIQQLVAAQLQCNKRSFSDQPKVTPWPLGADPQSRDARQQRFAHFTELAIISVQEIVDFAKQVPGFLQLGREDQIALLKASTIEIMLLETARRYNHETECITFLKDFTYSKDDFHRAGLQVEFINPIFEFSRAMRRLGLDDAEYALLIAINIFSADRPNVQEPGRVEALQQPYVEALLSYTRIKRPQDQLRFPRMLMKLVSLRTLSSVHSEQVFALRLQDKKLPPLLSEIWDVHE

Estrogen receptor beta = Estrogen receptor beta (Homo sapiens, UniProt Q92731); assay: Agonist activity at ERbeta-LBD expressed in HEK293 cells assessed as Gal4-DBD interaction by cellular mammalian one hybrid assay relative to estradiol
Chain of Estrogen receptor beta (Q92731 whole entry, the tested form may be a part): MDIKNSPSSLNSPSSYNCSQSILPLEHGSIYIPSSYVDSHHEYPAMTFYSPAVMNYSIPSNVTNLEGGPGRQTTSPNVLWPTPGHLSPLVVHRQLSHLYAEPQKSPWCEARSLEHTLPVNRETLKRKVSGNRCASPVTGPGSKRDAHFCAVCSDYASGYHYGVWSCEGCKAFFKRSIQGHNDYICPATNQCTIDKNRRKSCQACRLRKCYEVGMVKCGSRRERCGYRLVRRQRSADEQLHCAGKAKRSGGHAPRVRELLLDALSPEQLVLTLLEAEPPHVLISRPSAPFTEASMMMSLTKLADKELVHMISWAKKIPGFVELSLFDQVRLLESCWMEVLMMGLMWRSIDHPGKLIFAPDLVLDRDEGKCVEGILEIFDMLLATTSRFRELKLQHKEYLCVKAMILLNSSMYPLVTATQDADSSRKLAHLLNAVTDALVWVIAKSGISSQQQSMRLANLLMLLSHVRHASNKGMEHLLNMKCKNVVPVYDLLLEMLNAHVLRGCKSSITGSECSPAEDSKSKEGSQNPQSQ

[2] = biological target: T2, Peroxisome proliferator-activated receptor gamma (Homo sapiens) (UniProt P37231); assay: Agonist activity at PPARgamma-LBD expressed in HEK293 cells assessed as Gal4-DBD interaction by cellular mammalian one hybrid assay relative to rosiglitazone
T2 sequence (whole entry): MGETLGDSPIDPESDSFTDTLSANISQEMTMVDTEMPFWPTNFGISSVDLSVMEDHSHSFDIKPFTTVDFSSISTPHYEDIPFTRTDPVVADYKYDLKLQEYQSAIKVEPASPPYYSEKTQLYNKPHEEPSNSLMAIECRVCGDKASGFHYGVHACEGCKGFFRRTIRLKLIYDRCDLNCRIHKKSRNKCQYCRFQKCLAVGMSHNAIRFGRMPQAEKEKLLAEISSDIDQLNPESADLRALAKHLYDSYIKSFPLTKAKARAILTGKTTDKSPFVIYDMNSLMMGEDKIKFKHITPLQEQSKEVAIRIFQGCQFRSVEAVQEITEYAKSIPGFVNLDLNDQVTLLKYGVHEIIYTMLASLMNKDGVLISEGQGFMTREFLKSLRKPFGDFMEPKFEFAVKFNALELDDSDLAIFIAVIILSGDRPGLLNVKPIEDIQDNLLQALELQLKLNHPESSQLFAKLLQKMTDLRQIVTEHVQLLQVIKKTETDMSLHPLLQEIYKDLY

[3] = biological target: T3, Mineralocorticoid receptor (Homo sapiens) (UniProt P08235); assay: Agonist activity at mineralocorticoid receptor-LBD expressed in HEK293 cells assessed as Gal4-DBD interaction by cellular mammalian one hybrid assay relative to mineralocorticoid
T3 sequence (whole entry): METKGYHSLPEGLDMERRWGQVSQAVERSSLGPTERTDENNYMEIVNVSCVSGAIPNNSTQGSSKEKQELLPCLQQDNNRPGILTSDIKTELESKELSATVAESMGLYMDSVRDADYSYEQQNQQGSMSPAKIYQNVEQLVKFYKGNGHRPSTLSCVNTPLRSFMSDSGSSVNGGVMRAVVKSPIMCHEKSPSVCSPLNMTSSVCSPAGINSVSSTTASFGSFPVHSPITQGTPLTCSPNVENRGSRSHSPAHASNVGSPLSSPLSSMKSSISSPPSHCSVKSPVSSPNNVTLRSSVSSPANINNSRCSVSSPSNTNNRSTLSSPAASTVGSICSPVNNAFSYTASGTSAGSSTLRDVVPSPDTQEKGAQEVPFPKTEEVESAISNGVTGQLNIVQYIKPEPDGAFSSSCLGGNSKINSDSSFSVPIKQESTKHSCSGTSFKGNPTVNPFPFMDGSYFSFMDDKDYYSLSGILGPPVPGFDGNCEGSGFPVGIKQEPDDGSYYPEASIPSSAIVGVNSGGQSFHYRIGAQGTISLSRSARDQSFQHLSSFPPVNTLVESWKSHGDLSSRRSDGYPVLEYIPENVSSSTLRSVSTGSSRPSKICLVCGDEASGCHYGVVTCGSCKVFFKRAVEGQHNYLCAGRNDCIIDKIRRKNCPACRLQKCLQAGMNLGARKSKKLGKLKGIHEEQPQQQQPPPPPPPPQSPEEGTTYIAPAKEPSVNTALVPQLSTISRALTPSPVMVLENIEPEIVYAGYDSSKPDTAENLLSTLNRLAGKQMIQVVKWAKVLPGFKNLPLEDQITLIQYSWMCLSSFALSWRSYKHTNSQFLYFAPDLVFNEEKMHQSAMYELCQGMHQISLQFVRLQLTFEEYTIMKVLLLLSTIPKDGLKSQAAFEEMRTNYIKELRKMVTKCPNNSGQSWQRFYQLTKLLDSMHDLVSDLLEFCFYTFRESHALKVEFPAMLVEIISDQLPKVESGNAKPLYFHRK

[4] = biological target: T4, Glucocorticoid receptor (Homo sapiens) (UniProt P04150); assay: Agonist activity at GR-LBD expressed in HEK293 cells assessed as Gal4-DBD interaction by cellular mammalian one hybrid assay relative to glucocorticoid
T4 sequence (whole entry): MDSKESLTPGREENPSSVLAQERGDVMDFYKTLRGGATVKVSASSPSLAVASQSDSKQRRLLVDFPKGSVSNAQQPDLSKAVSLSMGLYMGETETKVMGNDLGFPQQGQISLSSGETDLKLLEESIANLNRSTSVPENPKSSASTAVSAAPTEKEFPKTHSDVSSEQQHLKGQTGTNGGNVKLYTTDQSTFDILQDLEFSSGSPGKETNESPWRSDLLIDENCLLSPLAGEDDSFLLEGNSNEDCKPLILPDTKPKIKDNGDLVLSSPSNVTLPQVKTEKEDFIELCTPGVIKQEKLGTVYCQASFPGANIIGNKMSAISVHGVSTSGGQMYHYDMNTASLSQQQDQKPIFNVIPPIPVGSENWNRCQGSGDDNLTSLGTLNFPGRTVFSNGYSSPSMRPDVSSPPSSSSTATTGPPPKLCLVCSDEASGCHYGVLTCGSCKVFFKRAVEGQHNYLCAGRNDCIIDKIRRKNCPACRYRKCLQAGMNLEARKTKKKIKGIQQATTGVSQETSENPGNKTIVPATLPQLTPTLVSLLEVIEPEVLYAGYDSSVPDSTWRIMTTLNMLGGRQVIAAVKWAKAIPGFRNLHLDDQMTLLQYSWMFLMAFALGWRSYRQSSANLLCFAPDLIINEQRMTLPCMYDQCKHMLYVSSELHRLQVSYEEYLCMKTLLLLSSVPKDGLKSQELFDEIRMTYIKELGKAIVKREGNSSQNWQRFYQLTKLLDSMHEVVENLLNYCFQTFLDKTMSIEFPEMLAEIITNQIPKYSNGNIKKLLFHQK

Row | SMILES | pEC50 [1] | Efficacy (Estrogen receptor beta) [%] | Efficacy [2] [%] | Efficacy [3] [%] | Efficacy [4] [%]
1 | CN(Cc1cccc(C(=O)O)c1)c1ccc(OCc2c(-c3c(Cl)cccc3Cl)noc2C2CC2)nc1C(F)(F)F | < 5.00 | 20 | 10 | 0 | 0
2 | CN(Cc1ccc(C(=O)O)cc1)c1ccc(OCc2c(-c3c(Cl)cccc3Cl)noc2C2CC2)nc1C(F)(F)F | < 5.00 | 0 | 0 | 0 | 0
3 | CC(C)c1onc(-c2c(Cl)cccc2Cl)c1COc1ccc(N(C)Cc2ccc(C(=O)O)cc2)c(C(F)(F)F)n1 | < 5.00 | 0 | 0 | 0 | 0
